test system: HCV genotype 1b replicon; experiment: HCV replicon assay (1b_Huh-Luc/Neo-ET cell line, luciferase readout); format: cell-based; details: Hepatitis C virus, Huh-7, 72 h, read-out: Inhibition of HCV genotype 1b
Outline: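 1b_Huh-Luc/Neo-ET Huh 7 cells carrying a bicistronic genotype 1b replicon; compounds added in triplicate the day after plating, 72 h incubation, then Bright-Glo luciferase read-out. Signal expressed as % of control; EC50 from curve fit, repeated several times.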

COC(=O)N[C@H](C(=O)N1CCC[C@H]1c1nc(-c2ccc3cc(-c4ccc(-c5cnc([C@@H]6CCCN6C(=O)[C@@H](c6ccccc6)N(C)C)[nH]5)cc4)ccc3c2)c[nH]1)C(C)C [compound 5] and COC(=O)N[C@H](C(=O)N1CCC[C@H]1c1ncc(-c2ccc(-c3ccc4cc(-c5c[nH]c([C@@H]6CCCN6C(=O)[C@H](NC(=O)OC)c6ccccc6)n5)ccc4c3)c(C)c2)[nH]1)C(C)C [compound 87] cannot be ordered by EC50: under 1 nM for the first, under 1 nM for the second.

COC(=O)N[C@H](C(=O)N1CCC[C@H]1c1ncc(-c2ccc3cc(-c4ccc5nc([C@@H]6CCCN6C(=O)[C@@H](NC(=O)OC)C(C)C)[nH]c5c4)ccc3c2)[nH]1)C(C)C [compound 174] and COC(=O)N[C@H](C(=O)N1CCC[C@H]1c1ncc(-c2ccc3nc(-c4ccc5nc([C@@H]6CCCN6C(=O)[C@@H](NC(=O)OC)C(C)C)[nH]c5c4)ccc3c2)[nH]1)C(C)C [compound 193] cannot be ordered by EC50: under 1 nM for the first, under 1 nM for the second.

COC(=O)N[C@H](C(=O)N1CCC[C@H]1c1nc2ccc(-c3cc4ccc(-c5cnc([C@@H]6CCCN6C(=O)[C@@H](NC(=O)OC)C6CCOCC6)[nH]5)cc4cn3)cc2[nH]1)C(C)C [compound 216] and COC(=O)N[C@H](C(=O)N1CCC[C@H]1c1nc2ccc(-c3ccc4cc(-c5cnc([C@@H]6CCCN6C(=O)[C@@H](NC(=O)OC)C6CCOCC6)[nH]5)cnc4c3)cc2[nH]1)C(C)C [compound 191] cannot be ordered by EC50: under 1 nM for the first, under 1 nM for the second.

COC(=O)N[C@H](C(=O)N1CCC[C@H]1c1nc2ccc(-c3cccc4c(-c5ccc6nc([C@@H]7CCCN7C(=O)[C@@H](NC(=O)OC)C(C)C)[nH]c6c5)cccc34)cc2[nH]1)C(C)C [compound 277] and COC(=O)N[C@H](C(=O)N1CCC[C@H]1c1ncc(-c2ccc3cc(-c4ccc5nc([C@@H]6CCCN6C(=O)[C@@H](NC(=O)OC)[C@@H](C)O)[nH]c5c4)ccc3c2)[nH]1)[C@@H](C)O [compound 175] cannot be ordered by EC50: under 1 nM for the first, under 1 nM for the second.

COC(=O)N[C@H](C(=O)N1CCC[C@H]1c1ncc(-c2ccc3nc(-c4ccc(-c5cnc([C@@H]6CCCN6C(=O)[C@H](NC(=O)OC)c6ccccc6)[nH]5)cc4)oc3c2)[nH]1)C(C)C [compound 255] and CNC(=O)N[C@@H](C(=O)N1CCC[C@H]1c1ncc(-c2ccc3nc(-c4ccc(-c5cnc([C@@H]6CCCN6C(=O)[C@@H](NC(=O)OC)C(C)C)[nH]5)cc4)oc3c2)[nH]1)c1ccccc1 [compound 251] cannot be ordered by EC50: under 1 nM for the first, under 1 nM for the second.

COC(=O)N[C@H](C(=O)N1CCC[C@H]1c1nc2ccc(-c3ccc4cc(-c5cnc([C@@H]6CCCN6C(=O)[C@@H](NC(=O)OC)C6CCOCC6)[nH]5)ccc4c3)nc2[nH]1)C(C)C [compound 201] and COC(=O)N[C@H](C(=O)N1CCC[C@H]1c1ncc(-c2ccc(-c3ccc4cc(-c5cnc([C@@H]6CCCN6C(=O)[C@H](NC(=O)OC)c6ccccc6)[nH]5)ccc4n3)c(F)c2)[nH]1)C1CCOCC1 [compound 129] cannot be ordered by EC50: under 1 nM for the first, under 1 nM for the second.

COC(=O)N[C@H](C(=O)N1CCC[C@H]1c1ncc(-c2ccc(-c3nc4cc(-c5cnc([C@@H]6CCCN6C(=O)[C@@H](NC(=O)OC)[C@@H](C)OC)[nH]5)ccc4o3)cc2)[nH]1)[C@@H](C)OC [compound 238] and COC(=O)N[C@H](C(=O)N1CCC[C@H]1c1ncc(-c2ccc(-c3nc4ccc(-c5cnc([C@@H]6CCCN6C(=O)[C@@H](NC(=O)OC)C(C)C)[nH]5)cc4n3C)cc2)[nH]1)C(C)C [compound 231] cannot be ordered by EC50: under 1 nM for the first, under 1 nM for the second.

COC(=O)N[C@H](C(=O)N1CCC[C@H]1c1ncc(-c2ccc(-c3nc4cc(-c5cnc([C@@H]6CCCN6C(=O)[C@@H](NC(=O)OC)C6CC6)[nH]5)ccc4o3)cc2)[nH]1)C1CC1 [compound 239] and COC(=O)N[C@H](C(=O)N1CCC[C@H]1c1nc(-c2ccc3nc(-c4ccc(-c5cnc([C@@H]6CCCN6C(=O)[C@@H](NC(=O)OC)C(C)C)[nH]5)cc4)ncc3c2)c[nH]1)C(C)C [compound 17] cannot be ordered by EC50: under 1 nM for the first, under 1 nM for the second.

COC(=O)N[C@H](C(=O)N1CCC[C@H]1c1ncc(-c2ccc(-c3nc4ccc(-c5cnc([C@@H]6CCCN6C(=O)OCc6ccccc6)[nH]5)cc4s3)cc2)[nH]1)C(C)C [compound 246] and COC(=O)N[C@H](C(=O)N1CCC[C@H]1c1ncc(-c2ccc(-c3ccc4cc(-c5c[nH]c([C@@H]6CCCN6C(=O)[C@H](NC(=O)OC(C)(C)C)c6ccccc6)n5)ccc4n3)cc2)[nH]1)C(C)C [compound 35] cannot be ordered by EC50: under 1 nM for the first, under 1 nM for the second.

COC(=O)N[C@H](C(=O)N1CCC[C@H]1c1nc(-c2cnc3cc(-c4ccc(-c5cnc([C@@H]6CCCN6C(=O)[C@@H](NC(=O)OC)C(C)C)[nH]5)cn4)ccc3c2)c[nH]1)C(C)C [compound 74] and COC(=O)N[C@H](C(=O)N1CCC[C@H]1c1ncc(-c2ccc(-c3ccc4cc(-c5c[nH]c([C@@H]6CCCN6C(=O)[C@H](NC(=O)OC)c6ccccc6)n5)ccc4c3)c(F)c2)[nH]1)C(C)C [compound 67] cannot be ordered by EC50: under 1 nM for the first, under 1 nM for the second.

In the case of COC(=O)N[C@@H](C)C(=O)N1CCC[C@H]1c1nc(-c2ccc3nc(N4CCC(c5cnc([C@@H]6CCCN6C(=O)[C@H](C)NC(=O)OC)[nH]5)CC4)ccc3c2)c[nH]1 [compound 273], the EC50 is reported as 1 to 9.9 nM.

Reference: patent US8618151B2, “Inhibitors of HCV NS5A” (Presidio Pharmaceuticals, Inc., priority 2008, dated 2013)
